Measurements from patent publication US3954995A, “Mono-and disubstituted hydroxyguanidines in the treatment of depression” (E. I. Du Pont de Nemours and Company, priority 1974, dated 1976).
Where two headings read alike, the source gives them in different places.

Columns and labels:
[1] = tested on: tetrabenazine-induced sedation in mice; assay: Antitetrabenazine test: prevention of tetrabenazine-induced sedation and depression (exploratory activity and ptosis); format: in vivo, mice (Carworth CF1 S female); conditions: Mus musculus, po, 1 h
Method: This mouse test is predictive of human antidepressant response (Everett, G. M., "The Dopa Response Potentiation Test and Its Use in Screening for Antidepressant Drugs", pp. 164-167 in "Antidepressant Drugs", Proceedings of the First International Symposium, S. Garattini and M. N. G. Dukes, eds., 1967).
Groups of 10 Carworth CF1 S female mice, 18-21 g each, were fasted 1.5 hours and were intubated with a hydroxyguanidine as antagonist to tetrabenazine at oral doses of 5, 25 and 125 mg/kg in 0.20 ml of 1% methyl cellulose (Methocel.) Thirty minutes later the mice were challenged with tetrabenazine, 32 mg/kg intraperitoneally (dissolved in 0.20 ml of 0.05M KCl at pH 2.0). One hour after the hydroxyguanidine compound (30 minutes after tetrabenzine) the mice were examined for signs of exploratory activity and ptosis (eye-lid closure). Normal exploratory activity (relief from sedation) was recorded when a mouse lifted by the tail from a group of 10 in a testing box and placed on a stainless steel testing box lid (12.5 inch × 8 inch × 0.33 inch mesh) either turned its head horizontally 30° or moved to the edge of the screen withi 10 seconds after being placed on the screen. Relief from ptosis was recorded when exactly 2 seconds after placing the mouse facing the observer, lid closure was less than 50% in both eyes.

[2] = tested on: tetrabenazine-induced sedation in mice; assay: as above; format: in vivo, mice (Carworth CF1 S female); conditions: up to 81 mg/kg
[3] = tested as hydroxyguanidine HCl salt, tetrabenazine 32 mg/kg i.p., read-out: Antitetrabenazine ED 50, Exploratory
[4] = tested as hydroxyguanidine HCl salt, tetrabenazine 32 mg/kg i.p., read-out: Antitetrabenazine ED 50, Ptosis
[5] = tetrabenazine 32 mg/kg i.p. 30 min later, read 1 h after compound, read-out: Antitetrabenazine ED 50, Exploratory
[6] = tetrabenazine 32 mg/kg i.p. 30 min later, read 1 h after compound, read-out: Antitetrabenazine ED 50, Ptosis (dose which blocked ptosis in 50% of the mice)

Row | Structure (SMILES) | ED50 [1, 3] [mg/kg] | ED50 [1, 4] [mg/kg] | ED50 [1, 5] [mg/kg] | ED50 [1, 6] [mg/kg] | Activity in the antitetrabenazine screen [2]
1 | CN(C(N)=NO)c1ccccc1 [Example 1, 1-phenyl-1-methylhydroxyguanidine] | 9 | 1.1 | > 81 | 1.1 | –
2 | CN(Cc1ccccc1)C(N)=NO [Example 2, 1-benzyl-1-methylhydroxyguanidine] | > 81 | 0.43 | 9 | 0.18 | –
3 | CCN(Cc1ccccc1)C(N)=NO [Example 3, 1-benzyl-1-ethylhydroxyguanidine] | – | – | 9 | 0.39 | –
4 | COc1ccc(CN(C)C(N)=NO)cc1 [Example 4, 1-p-methoxybenzyl-1-methylhydroxyguanidine] | – | – | > 81 | 59 | –
5 | CN(Cc1ccc(F)cc1)C(N)=NO [Example 5, 1-p-fluorobenzyl-1-methylhydroxyguanidine] | – | – | > 81 | 8.1 | –
6 | CN(Cc1ccc(Br)cc1)C(N)=NO [Example 6, 1-p-bromobenzyl-1-methylhydroxyguanidine] | – | – | > 81 | 17.4 | –
7 | Cc1ccc(CN(C)C(N)=NO)cc1 [Example 7, 1-p-methylbenzyl-1-methylhydroxyguanidine] | – | – | > 81 | 23 | –
8 | CN(Cc1ccc([N+](=O)[O-])cc1)C(N)=NO [Example 8, 1-p-nitrobenzyl-1-methylhydroxyguanidine] | – | – | > 81 | 47 | –
9 | CN(Cc1ccc(Cl)c(Cl)c1)C(N)=NO [Example 9, 1-(3,4-dichlorobenzyl)-1-methylhydroxyguanidine] | – | – | > 81 | 4.8 | –
10 | CN(Cc1ccc(Cl)cc1)C(N)=NO [Example 10, 1-p-chlorobenzyl-1-methylhydroxyguanidine] | – | – | > 81 | 10.8 | –
11 | CN(C(N)=NO)c1ccc(Cl)cc1 [Example 11, 1-p-chlorophenyl-1-methylhydroxyguanidine] | – | – | 81 | 0.82 | –
12 | CCN(C(N)=NO)c1ccccc1 [Example 12, 1-phenyl-1-ethylhydroxyguanidine] | – | – | 15.6 | 3 | –
13 | Cc1ccc(N(C)C(N)=NO)cc1 [Example 13, 1-p-tolyl-1-methylhydroxyguanidine] | – | – | 3 | 0.88 | –
14 | COc1ccc(N(C)C(N)=NO)cc1 [Example 14, 1-p-methoxyphenyl-1-methylhydroxyguanidine] | – | – | > 81 | 20.5 | –
15 | CCCN(C(N)=NO)c1ccccc1 [Example 17, 1-phenyl-1-n-propylhydroxyguanidine] | – | – | > 81 | 20 | –
16 | CN(C(N)=NO)C1CCCCC1 [Example 18, 1-cyclohexyl-1-methylhydroxyguanidine] | – | – | > 81 | 9 | –
17 | NC(=NO)NCc1ccccc1 [Example 19, 1-benzylhydroxyguanidine] | > 81 | 12.5 | – | – | –
18 | CN(Cc1cccc(Cl)c1)C(N)=NO [Example 20, 1-m-chlorobenzyl-1-methylhydroxyguanidine] | – | – | > 81 | 0.4 | –
19 | CN(Cc1cccc([N+](=O)[O-])c1)C(N)=NO [Example 21, 1-m-nitrobenzyl-1-methylhydroxyguanidine] | – | – | > 81 | 66 | –
20 | CN(C(N)=NO)c1cccc(Cl)c1 [Example 22, 1-m-chlorophenyl-1-methylhydroxyguanidine] | – | – | > 81 | 0.7 | –
21 | Cc1ccc(N(C)C(N)=NO)cc1C [Example 23, 1-(3,4-xylyl)-1-methylhydroxyguanidine] | – | – | > 81 | 4.9 | –
22 | Cc1cccc(N(C)C(N)=NO)c1 [Example 24, 1-m-tolyl-1-methylhydroxyguanidine] | – | – | – | 0.4 | –
23 | CN(C(N)=NO)C1CCCC1 [Example 25, 1-cyclopentyl-1-methylhydroxyguanidine] | > 81 | 3 | – | – | –
24 | CNC(=NO)Nc1ccccc1 [Example 26, 1-Phenyl-3-methyl-2-hydroxyguanidine] | – | – | > 81 | 12.2 | –
25 | CNC(=NO)NCc1ccccc1 [Example 27, 1-Benzyl-3-methyl-2-hydroxyguanidine] | – | – | – | – | inactive
